Tests used:
Micrococcus luteus = assay: Agar plate filter disc test for antibacterial activity; details: for Zone size: agar plate seeded with Micrococcus luteus, 12 hours at 30° C.; for antibacterial activity against Micrococcus luteus: agar plates, in words
tuberculosis bacilli = details: in words, prior art; cited from earlier work
[1] = tested on: glutamate-aspartate transaminase; details: in words, prior art; cited from earlier work

Question: With `NC1CCONC1=O` (racemic) [DL-cyclocanaline, 4-amino-tetrahydro-1,2-oxazin-3-one] as the compound, how does the Zone size (Micrococcus luteus; Weight 400 micrograms on disc) read?
Answer: 48 mm

Question: And the Zone size (Micrococcus luteus; Weight 600 micrograms on disc)?
Answer: 58 mm

Question: And the “antibacterial activity against Micrococcus luteus” value (Micrococcus luteus)?
Answer: exhibited activity

Question: What about the “activity against tuberculosis bacilli” value (tuberculosis bacilli) of the same compound?
Answer: exhibits activity

Question: And the “inhibition of glutamate-aspartate transaminase” value [1]?
Answer: known to inhibit

Question: Which Zone size (Micrococcus luteus; Weight 400 micrograms on disc) does the source give for `C[C@H](C(=O)O)N1OCCCC1=O` [Compound R, 2R-(3-Oxo-[1,2]Oxazinan-2-yl)-Propionic Acid] here?
Answer: 23 mm

Question: What about the “antibacterial activity against Micrococcus luteus” value (Micrococcus luteus) of the same compound?
Answer: exhibited activity

Question: For `CC(C(=O)O)N1OCCC(NC(=O)Cc2ccccc2)C1=O` (stereo not drawn) [UA, 2-(α-Carboxylethyl)-4-phenylacetylamino-1,2-oxazinan-3-one], which melting point is on record?
Answer: 189 to 190 °C

Question: For `CC1=C(C(=O)O)N2C(=O)[C@@H](NC(=O)Cc3ccccc3)[C@H]2SC1` [desacetoxycephalosporin G], which Zone size (Micrococcus luteus; Weight 10 micrograms on disc) is on record?
Answer: 39 mm
